Bases are written 5' to 3'; sugars and linkages follow in the same order, as letters with counts (s phosphorothioate, o phosphodiester; PS: all linkages phosphorothioate). C may stand for cytosine or 5-methylcytosine; the collection does not tell. l = locked nucleic acid (LNA); d = 2'-deoxy (DNA)
biological target: HIF1A; test: HeLa, 100 nM transfected, 24 h, mean of 3; conditions: ASO

Sequence | caspase activation (% of PBS control)
GTTACTGCCTTCTTAC (sugars ldlllddddddldldl, PS) | 438
GTTACTGCCTTCTTAC (sugars lldddddddddldldl, PS) | 144
TGGCAAGCATCCTGTA (sugars l1 d2 l1 d7 l5, PS) | 416
TGGCAAGCATCCTGTA (sugars llldlddddddldddl, PS) | 253
ACTGCCTTCTTAC (sugars l1 d1 l2 d7 l2, PS) | 217
TGGCAAGCATCCTGTA (sugars ldlllddddddllddl, PS) | 495
GTTACTGCCTTCTTAC (sugars l4 d10 l2, PS) | 190
TGGCAAGCATCCTGTA (sugars l3 d8 l2 d1 l2, PS) | 414
GTTACTGCCTTCT (sugars l2 d1 l1 d8 l1, PS) | 133
GTTACTGCCTTCTTAC (sugars l5 d6 l1 d1 l3, PS) | 441
GTTACTGCCTTCTTAC (sugars ldddlddddddllddl, PS) | 125
TGGCAAGCATCCTGTA (sugars l4 d7 l2 d1 l2, PS) | 572
CAAGCATCCTGTA (sugars l2 d1 l1 d6 l3, PS) | 119
ACTGCCTTCTTAC (sugars l1 d11 l1, PS) | 130
GTTACTGCCTTCTTAC (sugars l3 d9 l1 d2 l1, PS) | 185
CAAGCATCCTGTA (sugars l1 d1 l2 d7 l2, PS) | 151
GTTACTGCCTTCTTAC (sugars l1 d3 l1 d7 l4, PS) | 259
TGGCAAGCATCCTGTA (sugars lldllddddddllldl, PS) | 474
TGGCAAGCATCCTGTA (sugars l1 d1 l2 d10 l2, PS) | 342
TGGCAAGCATCCTGTA (sugars lddddddddddldldl, PS) | 228
TGGCAAGCATCCTGTA (sugars l1 d3 l1 d10 l1, PS) | 146
TGGCAAGCATCCTGTA (sugars l1 d1 l3 d8 l3, PS) | 448
GTTACTGCCTTCTTAC (sugars l2 d1 l1 d7 l5, PS) | 335
GTTACTGCCTTCTTAC (sugars lddlldddddddlddl, PS) | 229
TGGCAAGCATCCTGTA (sugars ldddldddddddlddl, PS) | 173

Sequence | caspase activation (% of PBS control)
GCAAGCATCCTGT (sugars l2 d9 l2, PS) | 285
GCAAGCATCCTGT (sugars l2 d1 l1 d6 l3, PS) | 267
ACTGCCTTCTTAC (sugars l2 d1 l1 d8 l1, PS) | 177
GTTACTGCCTTCTTAC (sugars llddlddddddlddll, PS) | 193
GTTACTGCCTTCTTAC (sugars ldddlddddddddldl, PS) | 159
GTTACTGCCTTCTTAC (sugars l3 d1 l1 d8 l3, PS) | 264
TTACTGCCTTCTT (sugars l3 d9 l1, PS) | 128
TTACTGCCTTCTT (sugars l2 d8 l3, PS) | 270
TGGCAAGCATCCTGTA (sugars l4 d7 l3 d1 l1, PS) | 575
GTTACTGCCTTCTTAC (sugars l2 d11 l3, PS) | 122
GTTACTGCCTTCTTAC (sugars l4 d7 l5, PS) | 461
GTTACTGCCTTCTTAC (sugars lldllddddddllddl, PS) | 356
TGGCAAGCATCCTGTA (sugars llldlddddddldldl, PS) | 350
GTTACTGCCTTCTTAC (sugars ldlldddddddldlll, PS) | 195
ACTGCCTTCTTAC (sugars l2 d8 l1 d1 l1, PS) | 199
TGGCAAGCATCCTGTA (sugars l5 d6 l1 d1 l3, PS) | 443
GTTACTGCCTTCTTAC (sugars ldllldddddddlldl, PS) | 470
TGGCAAGCATCCTGTA (sugars l3 d11 l2, PS) | 314
GTTACTGCCTTCTTAC (sugars l2 d9 l5, PS) | 328
TTACTGCCTTCTT (sugars l4 d6 l3, PS) | 396
GTTACTGCCTTCTTAC (sugars ldlllddddddllddl, PS) | 499
TGGCAAGCATCCTGTA (sugars l2 d1 l1 d10 l2, PS) | 501
GTTACTGCCTTCTTAC (sugars l1 d2 l1 d11 l1, PS) | 91.7
TGGCAAGCATCCTGTA (sugars lddlddddddddlldl, PS) | 392
GTTACTGCCTTCTTAC (sugars l3 d1 l1 d9 l2, PS) | 185

— the OligoGym collection
